Data reported in USRE49022E1, “Insecticidal compounds” (SYNGENTA PARTICIPATIONS AG, priority 2013, dated 2022).

What was measured:
Assay type in all cases: in vivo
[1] = system: Spodoptera littoralis (Egyptian Cotton Leafworm); test: Spodoptera littoralis, cotton leaf disc spray test; settings: foliar, 72 h, sprayed cotton leaf discs, L1 larvae, 3 days after treatment
Excerpt: Cotton leaf discs were placed on agar in a 24-well microtiter plate and sprayed with test solutions at an application rate of 200 ppm. After drying, the leaf discs were infested with 5 L1 larvae. The samples were checked for mortality 3 days after treatment (DAT).

[2] = system: Myzus persicae (Green Peach Aphid); test: Myzus persicae, sunflower leaf disc spray test; settings: foliar, 144 h, sprayed sunflower leaf discs, aphid population of mixed ages, mortality after 6 DAT
Protocol: Sunflower leaf discs were placed on agar in a 24-well microtiter plate and sprayed with test solutions at an application rate of 200 ppm. After drying, the leaf discs were infested with an aphid population of mixed ages. After an incubation period of 6 DAT, samples were checked for mortality.

[3] = system: Tetranychus urticae (Two-Spotted Spider Mite); test: Tetranychus urticae, bean leaf disc spray test; settings: foliar, 192 h, sprayed bean leaf discs, mite populations of mixed ages, 8 days
Excerpt: Bean leaf discs on agar in 24-well microtiter plates were sprayed with test solutions at an application rate of 200 ppm. After drying, the leaf discs are infested with mite populations of mixed ages. 8 days later, discs were checked for mortality.

[4] = system: Diabrotica balteata (Corn Root Worm); test: Diabrotica balteata, artificial diet MTP test; settings: 120 h, 200 ppm (concentration in well 18 ppm), L2 larvae, larval mortality after 5 days
How it was run: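 Artificial diet treated with test solution at 200 ppm application rate (18 ppm in well), dried, then infested with L2 larvae (6-10 per well). Larval mortality checked after 5 days of incubation.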

[5] = system: Spodoptera littoralis (Egyptian Cotton Leaf Worm); test: Spodoptera littoralis, agar / lettuce root uptake test; settings: 144 h, mixed with agar, uptake by lettuce roots, mortality 6 days after infestation
Excerpt: Test compounds were applied by pipette into 24 well plates and mixed with agar. Application rate: 12.5 ppm. Lettuce seeds were placed on the agar and the multi well plate is closed by another plate which contains also agar. After 7 days the roots have absorbed the compound and the lettuce has grown into the lid plate. The lettuce leafs were now cut off into the lid plate. Spodoptera eggs were pipetted through a plastic stencil on a humid gel blotting paper and the plate closed with it. The samples are checked for mortality 6 days after infestation.

[6] = system: Plutella xylostella (Diamond Back Moth); test: Plutella xylostella, artificial diet MTP test; settings: 144 h, 200 ppm (concentration in well 18 ppm), L2 larvae, 6 days
How it was run: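 Artificial diet treated at 200 ppm application rate (18 ppm in well), dried, then infested with 7–12 L2 larvae per well. Larval mortality and growth regulation assessed after 6 days.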

[7] = system: Myzus persicae (Green Peach Aphid); test: Myzus persicae, sucrose solution / Parafilm test; settings: 120 h, mixed with sucrose solution under Parafilm, mortality 5 days after infestation
How it was run: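 Compounds mixed into sucrose solution at 12.5 ppm, sealed under stretched Parafilm, with aphid-infested pea seedlings placed on the Parafilm and the plate inverted so aphids feed through the membrane. Mortality assessed 5 days after infestation.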

[8] = system: Thrips tabaci (Onion Thrips); test: Thrips tabaci, sunflower leaf disc spray test; settings: foliar, 168 h, sprayed sunflower leaf discs, mortality after 7 days

CCc1cc(C(F)(C(F)(F)F)C(F)(F)Cl)cc(Br)c1NC(=O)c1cccc(N(CC)C(=O)c2ccc[n+]([O-])c2)c1OC (centres unmarked) [Compound 50]
≥ 80%: mortality at 200 ppm [1] | pest or weed control at 200 ppm [2] | mortality at 200 ppm [3] | pest or weed control at 200 ppm [4] | pest or weed control at 12.5 ppm [5] | mortality at 200 ppm [6] | pest or weed control at 12.5 ppm [7] | pest or weed control at 200 ppm [8]
